According to patent US7335723B2, “Melanin-concentrating hormone antagonists” (priority 2001, dated 2008):
Where a SMILES comes first, the peptide text is derived from it. Bridges are numbered along the chain shown (N, C = ends). [ ]: non-standard residue; d: D form. The star is where a group is joined. Pentanoyl(5-guanidino) = NC(N)=NCCCCC(=O)*; dNle = CCCC[C@@H](N)C(=O)O; Nle = CCCC[C@H](N)C(=O)O; Abu = CC[C@H](N)C(=O)O; Ava = NCCCCC(=O)O; βAla = NCCC(=O)O

Columns and labels:
rat MCH-1R = rat MCH-1R (Rattus norvegicus, UniProt P97639); assay: Aequorin bioluminescence functional assay, MCH-1R agonist activity; settings: for MCH-1R Agonist Activation %: 293-AEQ17 cells expressing rat MCH-1R
human MCH-1R = human MCH-1R (Homo sapiens, UniProt Q99705); assay: MCH-1R binding assay, inhibition of [125I]-human MCH binding to membranes
Procedure: Cell membranes were prepared on ice. Each T-75 flask was rinsed twice with 10 ml of Enzyme-free Cell Dissociation Buffer (Specialty Media, Lavallette, N.J.), and the cell monolayer was detached in an additional 10 ml of Enzyme-free Cell Dissociation Buffer by incubation at room temperature for 10 minutes. Dissociated cells were centrifuged (500×g for 10 minutes at 4° C.), resuspended in 5 ml homogenization buffer (10 mM Tris-HCl, pH 7.4, 0.01 mM Pefabloc, 10 μM phosphoramidon, 40 μg/ml bacitracin) and then homogenized using a glass homogenizer (10-15 strokes). The homogenate was centrifuged for 10 minutes (1,000×g at 4° C.). The resulting supernatant was then centrifuged at 38,700×g for 15 minutes at 4° C. Pelleted membranes were resuspended (passed through 25 gauge needle 5 times), snap-frozen on liquid nitrogen, and stored at −80° C. until use.
Bound radioligand was separated by rapid vacuum filtration (Packard Filtermate 96-well cell harvester) through GF/C filters pretreated for 1 hour with 1% polyethylenimine. After application of the membrane suspension to the filter, the filters were washed 3 times with 3 ml each of ice-cold 50 mM Tris-HCl, pH 7.4, 10 mM MgCl2, 2 mM EDTA, 0.04% Tween 20 and the bound radioactivity on the filters was quantitated by scintillation counting (TopCount device).
For the SPA-based assay, WGA-PVT beads (NEN Life Sciences Products) were resuspended in Dulbecco's PBS with calcium and magnesium (500 mg beads in 4 ml PBS). […] The suspension was mixed gently for 20 minutes, 12.3 ml of assay buffer and protease inhibitors were added (final concentration given): 2 μg/ml leupeptin, 10 μM phosphoramidon, 40 μg/ml bacitracin, 5 μg/ml aprotinin, 0.1 mM Pefabloc.
Coated beads were kept on ice until use.

human MCH-2R = human MCH-2R (Homo sapiens, UniProt Q969V1); assay: Aequorin bioluminescence functional assay, MCH-2R agonist activity; settings: for MCH-2R Agonist Activation %: 293-AEQ17 cells expressing human MCH-2R
human MCH-2R, sequence (Q969V1 whole entry): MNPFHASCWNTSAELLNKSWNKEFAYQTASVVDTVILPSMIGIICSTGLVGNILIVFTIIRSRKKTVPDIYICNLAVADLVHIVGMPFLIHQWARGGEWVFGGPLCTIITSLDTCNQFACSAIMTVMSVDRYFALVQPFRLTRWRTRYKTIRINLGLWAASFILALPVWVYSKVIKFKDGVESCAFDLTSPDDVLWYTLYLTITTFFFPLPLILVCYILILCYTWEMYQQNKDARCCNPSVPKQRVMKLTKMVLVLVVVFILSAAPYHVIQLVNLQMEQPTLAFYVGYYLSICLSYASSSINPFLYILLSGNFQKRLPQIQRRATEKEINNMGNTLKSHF

rat MCH-1R, sequence (P97639 whole entry): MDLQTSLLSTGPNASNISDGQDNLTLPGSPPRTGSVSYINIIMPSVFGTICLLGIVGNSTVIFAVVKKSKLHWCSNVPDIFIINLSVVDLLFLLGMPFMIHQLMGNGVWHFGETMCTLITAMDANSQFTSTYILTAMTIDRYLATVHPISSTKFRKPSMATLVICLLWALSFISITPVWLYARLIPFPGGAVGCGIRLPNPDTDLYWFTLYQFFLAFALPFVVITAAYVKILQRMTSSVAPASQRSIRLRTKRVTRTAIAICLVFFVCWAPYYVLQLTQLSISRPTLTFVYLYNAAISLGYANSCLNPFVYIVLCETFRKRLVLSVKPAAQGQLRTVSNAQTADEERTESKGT
human MCH-1R, sequence (Q99705 whole entry): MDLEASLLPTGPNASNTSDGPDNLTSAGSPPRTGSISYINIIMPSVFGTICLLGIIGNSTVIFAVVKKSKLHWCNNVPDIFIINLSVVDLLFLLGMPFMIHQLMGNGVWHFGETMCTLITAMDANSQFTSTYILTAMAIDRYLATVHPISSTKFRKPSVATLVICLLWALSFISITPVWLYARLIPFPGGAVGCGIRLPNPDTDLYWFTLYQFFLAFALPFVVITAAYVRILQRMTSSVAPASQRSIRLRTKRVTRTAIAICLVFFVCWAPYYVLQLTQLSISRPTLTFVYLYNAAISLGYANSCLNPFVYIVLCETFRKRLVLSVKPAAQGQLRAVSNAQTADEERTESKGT

SMILES | EC50 (rat MCH-1R) [nM] | MCH-1R Agonist Activation % (rat MCH-1R) [%] | IC50 (human MCH-1R) [nM] | EC50 (human MCH-2R) [nM] | MCH-2R Agonist Activation % (human MCH-2R) [%] | MCH-1R Binding, % @ concentration (human MCH-1R; @ 10 (concentration unit not given), in the IC50 (nM) column) [% @ 10]
CSCC[C@@H]1NC(=O)[C@@H](NC(=O)[C@H](CCCNC(=N)N)NC(C)=O)CSSC[C@@H](C(N)=O)NC(=O)[C@@H]2CCCN2C(=O)[C@H](CCCNC(=N)N)NC(=O)[C@H](Cc2ccc(O)cc2)NC(=O)[C@H](C(C)C)NC(=O)[C@H](CCCNC(=N)N)NC(=O)CNC(=O)[C@H](CC(C)C)NC1=O [SEQ. ID. NO. 2] | 20 | 99 |  |  |  | 
CSCC[C@@H]1NC(=O)[C@@H](NC(=O)[C@@H](CCCNC(=N)N)NC(C)=O)CSSC[C@@H](C(N)=O)NC(=O)[C@@H]2CCCN2C(=O)[C@H](CCCNC(=N)N)NC(=O)[C@H](Cc2ccc(O)cc2)NC(=O)[C@H](C(C)C)NC(=O)[C@H](CCCNC(=N)N)NC(=O)CCCCNC(=O)CCCCNC1=O [SEQ. ID. NO. 4] (Ac-[dR]CM[Ava][Ava]RVYRPC-NH2; disulfide 2-11 (inferred); C-terminus assumed) | 1080 | 72 | 3.7 | > 10000 | 7 | 
CSCC[C@@H]1NC(=O)[C@@H](NC(=O)CCCCNC(=N)N)CSSC[C@@H](C(N)=O)NC(=O)[C@@H]2CCCN2C(=O)[C@H](CCCNC(=N)N)NC(=O)[C@H](Cc2ccc(O)cc2)NC(=O)[C@H](C(C)C)NC(=O)[C@H](CCCNC(=N)N)NC(=O)CCCCNC(=O)CCCCNC1=O [SEQ. ID. NO. 5] ({Pentanoyl(5-guanidino)}-CM[Ava][Ava]RVYRPC-NH2; disulfide 1-10 (inferred); C-terminus assumed) | 380 | 10 | 6.3 | > 10000 | 31 | 
CSCC[C@@H]1NC(=O)[C@@H](NC(=O)CCCCNC(=N)N)CSSC[C@@H](C(N)=O)NC(=O)CNC(=O)[C@H](Cc2ccc(O)cc2)NC(=O)[C@H](C(C)C)NC(=O)[C@H](CCCNC(=N)N)NC(=O)CCCCNC(=O)CCCCNC1=O [SEQ. ID. NO. 6] ({Pentanoyl(5-guanidino)}-CM[Ava][Ava]RVYGC-NH2; disulfide 1-9) | > 10000 | 0.1 | > 1000 | > 10000 | 25 | 
CSCC[C@@H]1NC(=O)[C@@H](NC(=O)[C@H](CCCNC(=N)N)NC(C)=O)CSSC[C@@H](C(N)=O)NC(=O)CCCCNC(=O)CCCCNC(=O)[C@H](Cc2ccc(O)cc2)NC(=O)[C@H](C(C)C)NC(=O)[C@H](CCCNC(=N)N)NC(=O)CNC(=O)[C@H](CC(C)C)NC1=O [SEQ. ID. NO. 8] (Ac-RCMLGRVY[Ava][Ava]C-NH2; disulfide 2-11; C-terminus assumed) | 406 | 75 | 6.6 | > 10000 |  | 
CSCC[C@@H]1NC(=O)[C@@H](NC(=O)[C@@H](CCCNC(=N)N)NC(C)=O)CSSC[C@@H](C(N)=O)NC(=O)CCCCNC(=O)CCCCNC(=O)[C@H](Cc2ccc(O)cc2)NC(=O)[C@H](C(C)C)NC(=O)[C@H](CCCNC(=N)N)NC(=O)CNC(=O)[C@H](CC(C)C)NC1=O [SEQ. ID. NO. 10] (Ac-[dR]CMLGRVY[Ava][Ava]C-NH2; disulfide 2-11 (inferred); C-terminus assumed) | 1300 | 28 | 19.5 | > 10000 | 18 | 
CC[C@@H]1NC(=O)[C@@H](NC(=O)CCCCNC(=N)N)CSSC[C@@H](C(N)=O)NC(=O)CCCCNC(=O)CCCCNC(=O)[C@H](Cc2ccc(O)cc2)NC(=O)[C@H](C(C)C)NC(=O)[C@H](CCCNC(=N)N)NC(=O)CNC(=O)[C@H](CC(C)C)NC1=O [SEQ. ID. NO. 17] ({Pentanoyl(5-guanidino)}-C[Abu]LGRVY[Ava][Ava]C-NH2; disulfide 1-10; C-terminus assumed) | > 10000 | 3 | 830 | > 10000 | 7 | 
CC(=O)N[C@@H](CCCNC(=N)N)C(=O)N[C@H]1CSSC[C@@H](C(N)=O)NC(=O)CCCCNC(=O)CCCCNC(=O)[C@H](Cc2ccc(O)cc2)NC(=O)[C@H](C(C)C)NC(=O)[C@H](CCCNC(=N)N)NC(=O)CNC(=O)[C@H](CC(C)C)NC(=O)[C@H](C)NC1=O [SEQ. ID. NO. 22] (Ac-RCALGRVY[Ava][Ava]C-NH2; disulfide 2-11; C-terminus assumed) | > 10000 | 0.1 | > 1000 | 1830 | 25 | 
CSCC[C@@H]1NC(=O)[C@@H](NC(=O)CCCCNC(=N)N)CSSC[C@@H](C(N)=O)NC(=O)CCCCNC(=O)CCCCNC(=O)[C@H](Cc2ccc(O)cc2)NC(=O)[C@H](C(C)C)NC(=O)[C@H](CCCNC(=N)N)NC(=O)CNC1=O [SEQ. ID. NO. 23] ({Pentanoyl(5-guanidino)}-CMGRVY[Ava][Ava]C-NH2; disulfide 1-9) | > 10000 | 0.1 | > 1000 | > 10000 | 26 | 
CSCC[C@@H]1NC(=O)[C@H](NC(=O)[C@H](CCCNC(=N)N)NC(C)=O)CSSC[C@@H](C(N)=O)NC(=O)CCCCNC(=O)CCCCNC(=O)[C@H](Cc2ccc(O)cc2)NC(=O)[C@H](C(C)C)NC(=O)[C@H](CCCNC(=N)N)NC(=O)CNC(=O)[C@H](CC(C)C)NC1=O [SEQ. ID. NO. 24] (Ac-R[dC]MLGRVY[Ava][Ava]C-NH2; disulfide 2-11; C-terminus assumed) | > 10000 | 3 | 350 | > 10000 | 17 | 
CSCC[C@@H]1NC(=O)[C@H](NC(=O)CCCCNC(=N)N)CSSC[C@@H](C(N)=O)NC(=O)CCCCNC(=O)CCCCNC(=O)[C@H](Cc2ccc(O)cc2)NC(=O)[C@H](C(C)C)NC(=O)[C@H](CCCNC(=N)N)NC(=O)CNC(=O)[C@H](CC(C)C)NC1=O [SEQ. ID. NO. 25] | > 10000 | 0.1 | 66 | > 10000 | 25 | 
CCCC[C@H]1NC(=O)[C@H](CC(C)C)NC(=O)[C@H](CCSC)NC(=O)[C@@H](NC(=O)[C@H](CCCNC(=N)N)NC(C)=O)CSSC[C@@H](C(N)=O)NC(=O)CCCCNC(=O)CCCCNC(=O)[C@H](Cc2ccc(O)cc2)NC(=O)[C@H](C(C)C)NC(=O)[C@H](CCCNC(=N)N)NC1=O [SEQ. ID. NO. 26] (Ac-RCML[dNle]RVY[Ava][Ava]C-NH2; disulfide 2-11; C-terminus assumed) | 544 | 43 | 223 | > 10000 | 91 | 
CSCC[C@@H]1NC(=O)[C@@H](NC(=O)[C@H](CCCNC(=N)N)NC(C)=O)CSSC[C@@H](C(N)=O)NC(=O)CCCCNC(=O)CCCCNC(=O)[C@H](Cc2ccc(O)cc2)NC(=O)[C@H](C(C)C)NC(=O)[C@H](CCCNC(=N)N)NC(=O)[C@H]2CCCN2C(=O)[C@H](CC(C)C)NC1=O [SEQ. ID. NO. 28] (Ac-RCML[dP]RVY[Ava][Ava]C-NH2; disulfide 2-11 (inferred); C-terminus assumed) |  |  | 700 | > 10000 | 7 | 
CSCC[C@@H]1NC(=O)[C@@H](NC(=O)[C@H](CCCNC(=N)N)NC(C)=O)CSSC[C@@H](C(N)=O)NC(=O)CCNC(=O)CCNC(=O)[C@H](Cc2ccc(O)cc2)NC(=O)[C@H](C(C)C)NC(=O)[C@H](CCCNC(=N)N)NC(=O)CCNC(=O)CCNC1=O [SEQ. ID. NO. 31] (Ac-RCM[βAla][βAla]RVY[βAla][βAla]C-NH2; disulfide 2-11) | > 10000 | 3 |  | > 10000 | 6 | 76
C[C@@H]1NC(=O)[C@@H](NC(=O)CCCCNC(=N)N)CSSC[C@@H](C(=O)O)NC(=O)CCCCNC(=O)CCCCNC(=O)[C@H](Cc2ccc(O)cc2)NC(=O)[C@H](C)NC(=O)[C@H](CCCNC(=N)N)NC(=O)CCCCNC(=O)CCCCNC1=O [SEQ. ID. NO. 34] ({Pentanoyl(5-guanidino)}-CA[Ava][Ava]RAY[Ava][Ava]C-OH; disulfide 1-10) | > 10000 | 0.1 | > 1000 | > 10000 | 28 | 
CCCC[C@@H]1NC(=O)[C@@H](NC(=O)CCCCNC(=N)N)CSSC[C@@H](C(=O)O)NC(=O)CCCCNC(=O)CCCCNC(=O)[C@H](Cc2ccc(O)cc2)NC(=O)[C@H](C)NC(=O)[C@H](CCCNC(=N)N)NC(=O)CCCCNC(=O)CCCCNC1=O [SEQ. ID. NO. 35] ({Pentanoyl(5-guanidino)}-C[Nle][Ava][Ava]RAY[Ava][Ava]C-OH; disulfide 1-10) | > 10000 | 0.1 | > 1000 | > 10000 | 25 | 
CC(C)[C@@H]1NC(=O)[C@H](CCCNC(=N)N)NC(=O)CCCCNC(=O)CCCCNC(=O)CCCCNC(=O)[C@@H](NC(=O)CCCCNC(=N)N)CSSC[C@@H](C(N)=O)NC(=O)CCCCNC(=O)CCCCNC(=O)[C@H](Cc2ccc(O)cc2)NC1=O [SEQ. ID. NO. 36] | > 10000 | 0.1 | > 1000 | > 10000 | 24 | 
CSCC[C@@H]1NC(=O)[C@@H](NC(=O)[C@H](CCCNC(=N)N)NC(=O)[C@H](CC(C)C)NC(=O)[C@H](CCSC)NC(=O)[C@H](CC(=O)O)NC(=O)[C@H](Cc2ccccc2)NC(=O)[C@@H](N)CC(=O)O)CSSC[C@@H](C(=O)N[C@@H](Cc2c[nH]c3ccccc23)C(=O)N[C@@H](CCC(N)=O)C(=O)N[C@H](C(=O)O)C(C)C)NC(=O)[C@@H]2CCCN2C(=O)[C@H](CCCNC(=N)N)NC(=O)[C@H](Cc2ccc(O)cc2)NC(=O)[C@H](C(C)C)NC(=O)[C@H](CCCNC(=N)N)NC(=O)CNC(=O)[C@H](CC(C)C)NC1=O [hMCH, reference compound] | 30.9 | 100 |  |  | 100 | 
